According to patent US6063777A, “Iminochlorinaspartic acid derivatives” (Wyeth Lederle Japan, Ltd., priority 1996, dated 2000):

Key:
choriocapillaris = test: Occlusion of choriocapillaris by PDT, histological findings 24 hours after laser irradiation; type: in vivo, rats (Long Evance Rats); conditions: 16 mg/kg
Experimental: (§1) The following experiments were performed to investigate the optimal treatment parameters (timing of laser irradiation after dosing of the compound; laser irradiation dosage) for selective occlusion of choroidal neoplastic vessels by PDT using the compound of the present invention and a diode laser (produced by Hamamatsu Photonics; wavelength: 672 nm).
(§2) Photocoagulation was induced in rats (Long Evance Rats weighing 200-300 g) by Argon green laser irradiation (irradiation diameter: 100 μm, 140 mW, 0.1 sec) near the retinal papilla on funduc oculi. Ten days after photocoagulation, fundus photographs and fluorescein angiographs were taken and the animals showing development of choroidal neovascularization were used for experiments at the 11th day.
(§3) The compound of the present invention was administered via the tail vein at a dose of 16 mg/kg. After administration, time course distribution of the compound in the eyeball tissues was observed by fluorescence microscopy.
(§4) Laser irradiation was done by using the above-mentioned diode laser. The laser beam was confirmed to extend in the range of 500 μm in diameter on the retinal surface. Duration of irradiation was 4 minutes and the irradiation intensity varied at 30.6, 91.7, 152.9 and 244.9 mW/cm^2 on the retinal surface. These values correspond to 7.4, 22.0, 36.7 and 58.8 J/cm^2, respectively.
(§5) Assessment of the PDT using the compound of the present invention was made based on the fundus photographs taken with a fundus camera (produced by Jenesis Kowa) at 1 hour and 24 hours after laser irradiation. Occlusion of the neoplastic vessels and damage to the surrounding tissues were investigated by fluorescein antiography and histological examinations to assess the selectivity of the therapeutic effect.

colon cancer Colon 26 = test: Laser irradiation to extirpated organ: distribution (cancer/organ ratio) by surface fluorescence, N2-pulsed laser, mice bearing Colon 26; type: in vivo, CDF1 mice; conditions: for Cancer/Brain ratio / Cancer/Kidney ratio / Cancer/Liver ratio / Cancer/Lung ratio / Cancer/Muscle ratio: sodium salt, 10 mg/kg intravenous
Experimental: (§6) CDF1 mice (5 per group) were implanted with tumor tissues of colon cancer Colon 26. Two weeks after the implantation, the mice were given an intravenous injection of sodium salt of each of compounds (I) and (II) (10 mg/kg for each mouse) which had been diluted with a distilled water for injection. At 3 hrs, 6 hrs and 12 hrs after the injection, the blood samples were collected and the organs bearing the tumor tissue were extirpated, irradiated with N2 -pulsed laser (N2, wavelength: 337 nm, 2 ns), and the excited fluorescent spectrum was measured. The wavelengths in the range of 600 to 900 nm were examined based on the peak wavelength of NADH at 470 nm (determination of the distribution of the test compound in the organ by the surface fluorescence method using N2 -pulsed laser spectrophotometry). That is, cancer/organ (or plasma) ratio was determined by calculating the peak wavelength in the range of 600 to 900 nm when the peak wavelength at 470 nm was considered as the basic value, 1.

[1] = as above; type: in vivo, CDF1 mice; conditions: mouse, tumor/plasma, sodium salt, 10 mg/kg intravenous
Experimental: as §6

cancerous tissues = test: Accumulability to cancerous tissues and excretion from normal tissues (general findings); type: in vivo
retinal capillaries = test: Occlusion of retinal capillaries by PDT, histological findings 24 hours after laser irradiation; type: in vivo, rats (Long Evance Rats); conditions: 16 mg/kg
Experimental: as §1, §2, §3, §4, §5

[2] = Phosphorescence life time; type: physicochemical
[3] = tested on: choroidal arteries and veins; test: Occlusion of choroidal arteries and veins by PDT, histological findings 24 hours after laser irradiation; type: in vivo, rats (Long Evance Rats); conditions: 16 mg/kg
Experimental: as §1, §2, §3, §4, §5

[4] = tested on: choroidal neoplastic vessels; test: Occlusion of choroidal neoplastic vessels by PDT, histological findings 24 hours after laser irradiation; type: in vivo, rats (Long Evance Rats); conditions: for Occlusion of choroidal neoplastic vessels: 16 mg/kg
Experimental: as §1, §2, §3, §4, §5

[5] = Dancyl methionine test (photoreactivity by TLC or HPLC)
Excerpt: When compound (I) was examined by albumin test [that is, a convenient test method for evaluating the affinity to cancerous tissues, in which a chlorin derivative is examined on the change in ultraviolet (UV) absorption spectrum in a mixture form with albumin and in which one of the present inventors has found a certain rule] and dancyl methionine test [that is, a convenient test method for evaluating the strength of the photoreactivity by thin layer chromatography (TLC) or high performance liquid chromatography (HPLC)]

[6] = 7.4 J/cm^2, irradiation 60 min after administration
[7] = 7.4 J/cm^2, irradiation 120 min after administration
[8] = 7.4 J/cm^2, irradiation 240 min after administration
[9] = 7.4 J/cm^2, irradiation immediately after administration
[10] = 22.0 J/cm^2, irradiation 60 min after administration
[11] = 22.0 J/cm^2, irradiation 120 min after administration
[12] = 22.0 J/cm^2, irradiation 240 min after administration
[13] = 22.0 J/cm^2, irradiation immediately after administration
[14] = 36.7 J/cm^2, irradiation 60 min after administration
[15] = 36.7 J/cm^2, irradiation 120 min after administration
[16] = 36.7 J/cm^2, irradiation 240 min after administration
[17] = 36.7 J/cm^2, irradiation immediately after administration
[18] = 58.8 J/cm^2, irradiation 60 min after administration
[19] = 58.8 J/cm^2, irradiation 120 min after administration
[20] = 58.8 J/cm^2, irradiation 240 min after administration
[21] = 58.8 J/cm^2, irradiation immediately after administration

For C=Cc1c(C)c2cc3nc(cc4[nH]c(cc5nc(cc1[nH]2)C(C)=C5CCC(=O)NC(CC(=O)O)C(=O)O)c(CCC(=O)NC(CC(=O)O)C(=O)O)c4C)C(C)(O)C3=CC=NO (stereo not shown) [Compound (I)], the Occlusion of choriocapillaris (choriocapillaris; [6]) was “Closed”, the Occlusion of choriocapillaris (choriocapillaris; [7]) was “Open” and the Occlusion of choriocapillaris (choriocapillaris; [8]) was “Open”. For the same molecule, the Occlusion of choriocapillaris (choriocapillaris; [9]) was “Closed”, the Occlusion of choriocapillaris (choriocapillaris; [10]) was “Closed” and the Occlusion of choriocapillaris (choriocapillaris; [11]) was “Closed”. For the same molecule, the Occlusion of choriocapillaris (choriocapillaris; [12]) was “Closed”, the Occlusion of choriocapillaris (choriocapillaris; [13]) was “Closed” and the Occlusion of choriocapillaris (choriocapillaris; [14]) was “Closed”. The Occlusion of choriocapillaris (choriocapillaris; [15]) was “Closed”, the Occlusion of choriocapillaris (choriocapillaris; [16]) was “Closed” and the Occlusion of choriocapillaris (choriocapillaris; [17]) was “Closed”. The Occlusion of choriocapillaris (choriocapillaris; [18]) was “Closed”, the Occlusion of choriocapillaris (choriocapillaris; [19]) was “Closed” and the Occlusion of choriocapillaris (choriocapillaris; [20]) was “Closed”. The Occlusion of choriocapillaris (choriocapillaris; [21]) was “Closed”, the Cancer/Brain ratio (colon cancer Colon 26; 3 hr) was 11.24 and the Cancer/Kidney ratio (colon cancer Colon 26; 3 hr) was 1.54. For the same molecule, the Cancer/Liver ratio (colon cancer Colon 26; 3 hr) was 1.35, the Cancer/Lung ratio (colon cancer Colon 26; 3 hr) was 5.02 and the Cancer/Muscle ratio (colon cancer Colon 26; 3 hr) was 4.19. It also gave a Cancer/Brain ratio (colon cancer Colon 26; 6 hr) of 15.14, a Cancer/Kidney ratio (colon cancer Colon 26; 6 hr) of 1.36 and a Cancer/Liver ratio (colon cancer Colon 26; 6 hr) of 2.02. For the same molecule, the Cancer/Lung ratio (colon cancer Colon 26; 6 hr) was 7.85, the Cancer/Muscle ratio (colon cancer Colon 26; 6 hr) was 3.72 and the Cancer/Brain ratio (colon cancer Colon 26; 12 hr) was 15.0. The Cancer/Kidney ratio (colon cancer Colon 26; 12 hr) was 1.27, the Cancer/Liver ratio (colon cancer Colon 26; 12 hr) was 0.92 and the Cancer/Lung ratio (colon cancer Colon 26; 12 hr) was 6.45. For the same molecule, the Cancer/Muscle ratio (colon cancer Colon 26; 12 hr) was 4.73, the “accumulability to cancerous tissues” value (colon cancer Colon 26; compared with position isomer) was “much higher accumulability to cancerous tissues as compared with its position isomer” and the Kp at 3 h ([1]; 3 hr) was 1.48. For the same molecule, the Kp at 6 h ([1]; 6 hr) was 1.18, the Kp at 12 h ([1]; 12 hr) was 2.37 and the “accumulability to cancerous tissues” value (cancerous tissues; compared with compound of formula (II)) was “remarkably superior accumulability to cancerous tissues as compared with the compound of formula (II)”. The “excretion from normal tissues” value (cancerous tissues; in vivo) was “quick excretion property from normal tissues”, the “Occlusion of retinal capillaries” value (retinal capillaries; [6]) was “Closed” and the “Occlusion of retinal capillaries” value (retinal capillaries; [7]) was “Open”. The “Occlusion of retinal capillaries” value (retinal capillaries; [8]) was “Open”, the “Occlusion of retinal capillaries” value (retinal capillaries; [10]) was “Closed” and the “Occlusion of retinal capillaries” value (retinal capillaries; [11]) was “Open”. For the same molecule, the “Occlusion of retinal capillaries” value (retinal capillaries; [12]) was “Open”, the “Occlusion of retinal capillaries” value (retinal capillaries; [13]) was “Closed” and the “Occlusion of retinal capillaries” value (retinal capillaries; [14]) was “Closed”. For the same molecule, the “Occlusion of retinal capillaries” value (retinal capillaries; [15]) was “Closed”, the “Occlusion of retinal capillaries” value (retinal capillaries; [16]) was “Closed” and the “Occlusion of retinal capillaries” value (retinal capillaries; [17]) was “Closed”. For the same molecule, the “Occlusion of retinal capillaries” value (retinal capillaries; [18]) was “Closed”, the “Occlusion of retinal capillaries” value (retinal capillaries; [19]) was “Closed” and the “Occlusion of retinal capillaries” value (retinal capillaries; [20]) was “Closed”. For the same molecule, the “Occlusion of retinal capillaries” value (retinal capillaries; [21]) was “Closed”, the phosphorescence life time [2] was “long phosphorescence life time” and the “Occlusion of choroidal arteries and veins” value [3, 6] was “Closed”. The “Occlusion of choroidal arteries and veins” value [3, 7] was “Open”, the “Occlusion of choroidal arteries and veins” value [3, 8] was “Open” and the “Occlusion of choroidal arteries and veins” value [3, 10] was “Closed”. For the same molecule, the “Occlusion of choroidal arteries and veins” value [3, 11] was “Open”, the “Occlusion of choroidal arteries and veins” value [3, 12] was “Open” and the “Occlusion of choroidal arteries and veins” value [3, 14] was “Closed”. For the same molecule, the “Occlusion of choroidal arteries and veins” value [3, 15] was “Open”, the “Occlusion of choroidal arteries and veins” value [3, 16] was “Open” and the “Occlusion of choroidal arteries and veins” value [3, 17] was “Closed”. The “Occlusion of choroidal arteries and veins” value [3, 18] was “Closed”, the “Occlusion of choroidal arteries and veins” value [3, 19] was “Open” and the “Occlusion of choroidal arteries and veins” value [3, 20] was “Open”. For the same molecule, the “Occlusion of choroidal arteries and veins” value [3, 21] was “Closed”, the “Occlusion of choroidal neoplastic vessels” value [4, 6] was “Closed” and the “Occlusion of choroidal neoplastic vessels” value [4, 9] was “Closed”. The “selective occlusion of choroidal neoplastic vessels and choriocapillaris” value ([4]; 7.4 J/cm^2 immediately after administration) was “selective occlusion of the choroidal neoplastic vessels and choriocapillaris was achieved without causing serious damage to the retinal capillaries and choroidal arteries and veins”, the “Occlusion of choroidal neoplastic vessels” value [4, 10] was “Closed” and the “Occlusion of choroidal neoplastic vessels” value [4, 11] was “Closed”. The “Occlusion of choroidal neoplastic vessels” value [4, 12] was “Closed”, the “Occlusion of choroidal neoplastic vessels” value [4, 13] was “Closed” and the “selective occlusion of choroidal neoplastic vessels and choriocapillaris” value ([4]; 22.0 J/cm^2 at 2-4 hours after administration) was “selective occlusion of the choroidal neoplastic vessels and choriocapillaris was achieved without causing serious damage to the retinal capillaries and choroidal arteries and veins”. The “Occlusion of choroidal neoplastic vessels” value [4, 14] was “Closed”, the “Occlusion of choroidal neoplastic vessels” value [4, 15] was “Closed” and the “Occlusion of choroidal neoplastic vessels” value [4, 16] was “Closed”. For the same molecule, the “Occlusion of choroidal neoplastic vessels” value [4, 17] was “Closed”, the “Occlusion of choroidal neoplastic vessels” value [4, 18] was “Cldsed” and the “Occlusion of choroidal neoplastic vessels” value [4, 19] was “Closed”. For the same molecule, the “Occlusion of choroidal neoplastic vessels” value [4, 20] was “Closed”, the “Occlusion of choroidal neoplastic vessels” value [4, 21] was “Closed” and the “photosensitivity (dancyl methionine test)” value [5] was “strong photosensitivity”. The “cell killing effect when exposed to light” value ([5]; dancyl methionine test) was “good cell killing effect when exposed to light”.
